The text below walks through data of US20040121968A1, “Antiangiogenesis by inhibiting protein kinase CK2 activity” (priority 2002, published 2004).

For the assay, the system named is retinal endothelial cells (REC). The assay is described as follows: REC angiogenic assays taken together (proliferation, secondary sprouting, migration, tube formation). Format: cell-based, bovine. To be noted: all assays. The protocol:
Human REC (from normal, diabetic and patients with DR [“DR REC”]) and bovine REC were cultured in monolayer (for migration assay) or on top of Matrigel™ where cells form capillary-like tubes. They were treated with angiogenic growth factors or their combinations (at 10 ng/ml of each factor), and seeded with or without TN-C at 10-50 μg/mL. Cell numbers were determined by MTS assay (Promega Corp., Madison, Wis.). Tube length and number, and cell migration were assessed microscopically.
Treatment of REC cultures. Duplicate REC cultures on plastic (for migration) or Matrigel™ with the same number of cells per dish are treated with previously established working concentrations of signaling inhibitors and/or select growth factor combinations. Treatments begin at the time of seeding the cells and medium is changed every other day. Single growth factors are used as negative controls since their modulation of TN-C effects was minimal. Working growth factor concentrations were as follows: VEGF, 1-50 ng/mL depending on the assay; PlGF, 100 ng/mL; FGF-2, 10-100 ng/mL; IGF-I, 25-100 ng/mL; PDGF-BB, 10-100 ng/mL. When used as combinations, each growth factor was supplied at 10 ng/mL for optimum synergy. […]

Starred links: 1 amine or outer side, 2 acyl side, 3 side chain; linkers in the order of their positions; H or OH if unused. Positions of bridges follow the written chain, without caps; N, C: chain ends. Non-standard residues stand in square brackets, D forms with d. Residues, ends and D or L forms follow the SMILES beside them. Chains are numbered I, II in the order given. Actinocin(9to1) = Cc1c2oc3c(C)ccc(C(=O)[*:1])c3nc-2c(C(=O)[*:2])c(N)c1=O; NMeV = CN[C@H](C(=O)O)C(C)C; Sar = CNCC(=O)O

In the case of `Cc1c2oc3c(C)ccc(C(=O)N[C@@H]4C(=O)N[C@H](C(C)C)C(=O)N5CCC[C@H]5C(=O)N(C)CC(=O)N(C)[C@@H](C(C)C)C(=O)O[C@@H]4C)c3nc-2c(C(=O)N[C@@H]2C(=O)N[C@H](C(C)C)C(=O)N3CCC[C@H]3C(=O)N(C)CC(=O)N(C)[C@@H](C(C)C)C(=O)O[C@@H]2C)c(N)c1=O` [Actinomycin D] (I: T[dV]P[Sar][NMeV] / II: T[dV]P[Sar][NMeV]; ester I:1-I:C, II:1-II:C; linker I:N-II:N via Actinocin(9to1)), the “effect of inhibitor in the angiogenic assays” value is “only minor changes”.
